# Measurements as given in publication PMC9855884, “Glycosylated Lipopeptides—Synthesis and Evaluation of Antimicrobial Activity and Cytotoxicity” (Biomolecules, 2023).
# Where a SMILES comes first, the peptide text is derived from it. The star is where a group is joined. βGlcNAc = CC(=O)N[C@@H]1[C@@H](O)[C@H](O)[C@@H](CO)O[C@H]1*; Stearoyl = CCCCCCCCCCCCCCCCCC(=O)*; Palmitoyl = CCCCCCCCCCCCCCCC(=O)*; Myristoyl = CCCCCCCCCCCCCC(=O)*
# Tests used:
# [1] = system: K. pneumoniae ATCC 700603; assay type: cell-based, Klebsiella pneumoniae; settings: ATCC 700603, 18 h
# Experimental: (§1) The Acinetobacter baumannii ATCC BAA-1605, Enterococcus faecium ATCC 700221, Klebsiella aerogenes ATCC 13048, Klebsiella pneumoniae ATCC 700603, Pseudomonas aeruginosa ATCC 9027, Staphylococcus aureus ATCC 33591, Candida glabrata ATCC 15126, strains were acquired from the American Type Culture Collection (ATCC). All the strains were stored at −80 °C in Roti-Store cryo vials and were transferred into fresh Mueller–Hinton broth (MHB, Becton Dickinson, Warsaw, Poland) for bacteria or RPMI-1640 (Sigma-Aldrich, Steinheim, Germany) for fungi before the tests and incubated for 24 h at 37 °C. Then, the cultures were seeded on the Mueller–Hinton agar (BioMaxima, Lublin, Poland) or Sabouraud dextrose agar (SDA, BioMaxima, Lublin, Poland) plates, respectively, and incubated as just mentioned. These agar cultures were used for further microbiological assays. Cell densities for all assays were adjusted spectrophotometrically (Multiskan GO Microplate Spectrophotometer, Thermo Fisher Scientific, Vantaa, Finland) at 600 and 530 nm for bacteria and fungi, respectively.
# (§2) The MICs were determined using a broth microdilution method according to the Clinical and Laboratory Standard Institute guidelines. For this purpose, initial inoculums of bacteria (5 × 10^5 CFU/mL) in MHB and yeasts (2 × 10^3 CFU/mL) in RPMI-1640 with 2% D-glucose were exposed to the ranging concentration of lipopeptides (1–512 μg/mL) and incubated at 37 °C for 18 h and 24 h, respectively. The experiments were conducted on 96-well microtiter polystyrene plates (Kartell, Italy). The growth was assessed visually after incubation and the MIC was assumed as the lowest peptide concentration at which a noticeable growth of microorganisms was inhibited. All experiments were conducted in triplicate.
# [2] = system: A. baumannii ATCC BAA 1605; assay type: cell-based, Acinetobacter baumannii; settings: ATCC BAA 1605, 18 h
# Experimental: as §1, §2
# [3] = system: K. aerogenes ATCC 13048; assay type: cell-based, Klebsiella aerogenes; settings: ATCC 13048, 18 h
# Experimental: as §1, §2
# [4] = system: human red blood cells (RBCs); assay: Hemolysis assay; assay type: cell-based; settings: human RBCs 4% (v/v) in PBS, 60 min, 37 °C, absorbance 540 nm, 1–512 µg/mL; triplicate
# Experimental: The hemolysis assay was conducted using a procedure described previously. For this purpose, fresh human red blood cells (RBCs) with EDTA anticoagulant were washed three times with phosphate-buffer saline (PBS) using centrifugation at 800× g for 10 min and resuspended in PBS. Then, the stock solution of RBCs was added to serial dilution of peptides on 96-well polystyrene plates to reach a final volume of 100 µL with 4% concentration of erythrocytes (v/v) over the concentration range of 1–512 µg/mL of the tested compounds. The control wells for the 0% and 100% hemolysis consisted of RBCs suspended in PBS and 1% of Triton X–100, respectively. Subsequently, the plates were incubated for 60 min at 37 °C and then centrifuged at 800× g for 10 min at 4 °C (Sorvall ST 16R Centrifuge, Thermo Scientific, Osterode am Harz, Germany). After centrifugation, the supernatant was carefully […] to new microtiter plates and the release of hemoglobin was monitored through absorbance measurements at 540 nm (Multiskan™ GO Microplate Spectrophotometer, Thermo Scientific). All experiments were conducted in triplicate.
# The lipopeptides were tested against human erythrocytes in order to evaluate their hemolytic activity. Moreover, selectivity indexes (SI) were calculated by dividing the HC50 by MIC. […] In some cases, glycosylation led to suppressed toxicity, e.g., a comparison of C14 peptides analogs: 1–3 and 10–12. On the other hand, an increase in toxicity of C18 analogs (7–9 vs. 16–18) was found for glycosylated USCLs. For this reason, SI was calculated to provide a correlation between antimicrobial activity and toxicity. […] Among gUSCLs: 10 and 11 with C14 fatty acid and 16–18 should be highlighted owing to their high selectivity against E. fecium and C. glabrata.
# [5] = MTT assay, cytotoxicity; assay type: cell-based, human; settings: human, HaCaT keratinocytes, 24 h incubation at 37 °C, 0.5–500 μg/mL, six replicates per concentration, repeated at least twice
# Experimental: To evaluate the cytotoxicity of the test peptides (IC50), the classic MTT assay on 96-well plates was performed for human keratinocytes (HaCaT) which were acquired from the ATCC. The assay was based on colorimetric determination of the cell metabolic activity where the color intensity reflected the number of live cells that could be measured spectrophotometrically. The cell line was cultured in a Dulbecco’s modified Eagle Medium (Invitrogen) supplemented with 10% fetal bovine serum (v/v), 100 units/mL of penicillin, 100 μg/mL of streptomycin, and 2 mM L-glutamine and was kept at 37 °C in a humidified 5% CO2 incubator. Briefly, a day after plating of 500 cells per well, a series of concentrations (0.5–500 μg/mL) of the test compounds were applied. DMSO was added to the control cells at a final concentration of 1.0% (v/v), which was related to the maximum concentration of the solvent compounds used in the experiment. After 24 h of incubation at 37 °C (humidified 5% CO2 incubator) with the peptides, a medium containing 1 mg/mL of MTT was added to the wells up to a final concentration of 0.5 mg/mL. Subsequently, the plates were incubated at 37 °C for 4 h. Then, the medium was aspirated, and the formazan product was solubilized with DMSO. The background absorbance at 630 nm was subtracted from that at 570 nm for each well (Epoch, BioTek Instruments, Winooski, VT, USA). Six replicates were conducted for each concentration. All experiments were repeated at least twice and the resulting IC50 values were calculated with a GraFit 7 software (v. 7.0, Erithacus, Berkley, CA, USA).
# The selectivity indexes were calculated for all the strains as IC50/MIC. According to IC50, in most cases, glycosylation caused only a slight decrease in toxicity. However, in contrast with SI calculated for HC50, the differences between USCLs and gUSCLs are not so distinct. […] Moreover, toxicity of USCLs and gUSCLs is high and exceeds their antimicrobial activity. The lipopetides were not selective against Gram-negative strains (K. pneumoniae, A. baumannii, P. aeruginosa, K. aerogenes) over human cells. A few USCLs were selective (SI > 1) against E. faecium and S. aureus with SI up to 1.87; and some gUSCLs were selective against E. faecium but not against S. aureus, with SI between 0.63 and 1.73. […] In this case, SI of gUSCLs was noticeably […] than that of corresponding parent USCLs (2.07, 1.99, 2.67 vs. 2.53, 2.36, 3.46, respectively). Selectivity indexes were plotted against adjusted retention time (Figures S15–S21). A moderate linear correlation was found in USCLs and K. pneumoniae, C. glabrata, and gUSCLs and K. pneumoniae, K. aerogenes (R^2 between 0.6064 and 0.6481). A relatively high linear correlation was obtained for USCLs and K. aerogenes (R^2 of 0.8214) and also for gUSCLs and C. glabrata (R^2 of 0.9223).
SMILES,MIC [1],MIC [2],MIC [3],HC50 (hemolytic activity) [4],IC50 at 24 h [5]
"CCCCCCCCCCCCCC(=O)N[C@@H](CCCNC(=N)N)C(=O)N[C@@H](CO)C(=O)N[C@@H](CCCNC(=N)N)C(N)=O [Peptide 2, C14-RSR-NH2] (Myristoyl-Arg-Ser-Arg-NH2)",512 µg/mL,64 µg/mL,512 µg/mL,186.64 ± 2.14 µg/mL,15 ± 2.05 µg/mL
"CCCCCCCCCCCCCC(=O)N[C@@H](CCCNC(=N)N)C(=O)N[C@@H](CCCNC(=N)N)C(=O)N[C@@H](CO)C(N)=O [Peptide 3, C14-RRS-NH2] (Myristoyl-Arg-Arg-Ser-NH2)",512 µg/mL,64 µg/mL,512 µg/mL,227.01 ± 5.69 µg/mL,14.3 ± 1.96 µg/mL
"CCCCCCCCCCCCCCCC(=O)N[C@@H](CO)C(=O)N[C@@H](CCCNC(=N)N)C(=O)N[C@@H](CCCNC(=N)N)C(N)=O [Peptide 4, C16-SRR-NH2] (Palmitoyl-Ser-Arg-Arg-NH2)",512 µg/mL,32 µg/mL,16 µg/mL,75.46 ± 0.73 µg/mL,4.02 ± 1.17 µg/mL
"CCCCCCCCCCCCCCCC(=O)N[C@@H](CCCNC(=N)N)C(=O)N[C@@H](CO)C(=O)N[C@@H](CCCNC(=N)N)C(N)=O [Peptide 5, C16-RSR-NH2] (Palmitoyl-Arg-Ser-Arg-NH2)",64 µg/mL,32 µg/mL,32 µg/mL,82.21 ± 2.07 µg/mL,5.72 ± 2.27 µg/mL
"CCCCCCCCCCCCCCCC(=O)N[C@@H](CCCNC(=N)N)C(=O)N[C@@H](CCCNC(=N)N)C(=O)N[C@@H](CO)C(N)=O [Peptide 6, C16-RRS-NH2] (Palmitoyl-Arg-Arg-Ser-NH2)",32 µg/mL,32 µg/mL,64 µg/mL,75.95 ± 1.57 µg/mL,7.84 ± 1.44 µg/mL
"CCCCCCCCCCCCCCCCCC(=O)N[C@@H](CO)C(=O)N[C@@H](CCCNC(=N)N)C(=O)N[C@@H](CCCNC(=N)N)C(N)=O [Peptide 7, C18-SRR-NH2] (Stearoyl-Ser-Arg-Arg-NH2)",16 µg/mL,32 µg/mL,16 µg/mL,82.31 ± 1.36 µg/mL,8.28 ± 1.18 µg/mL
"CCCCCCCCCCCCCCCCCC(=O)N[C@@H](CCCNC(=N)N)C(=O)N[C@@H](CO)C(=O)N[C@@H](CCCNC(=N)N)C(N)=O [Peptide 8, C18-RSR-NH2] (Stearoyl-Arg-Ser-Arg-NH2)",32 µg/mL,64 µg/mL,32 µg/mL,335.12 ± 73.39 µg/mL,7.97 ± 1.51 µg/mL
"CCCCCCCCCCCCCCCCCC(=O)N[C@@H](CCCNC(=N)N)C(=O)N[C@@H](CCCNC(=N)N)C(=O)N[C@@H](CO)C(N)=O [Peptide 9, C18-RRS-NH2] (Stearoyl-Arg-Arg-Ser-NH2)",16 µg/mL,32 µg/mL,32 µg/mL,94.31 ± 2.64 µg/mL,10.7 ± 1.61 µg/mL
"CCCCCCCCCCCCCC(=O)N[C@@H](CO[C@@H]1O[C@H](CO)[C@@H](O)[C@H](O)[C@H]1NC(C)=O)C(=O)N[C@@H](CCCNC(=N)N)C(=O)N[C@@H](CCCNC(=N)N)C(N)=O [Peptide 10, C14-S(GlcNAc)RR-NH2] (Myristoyl-Ser(βGlcNAc)-Arg-Arg-NH2)",>512 µg/mL,128 µg/mL,>512 µg/mL,>512 µg/mL,32.1 ± 6.26 µg/mL
"CCCCCCCCCCCCCC(=O)N[C@@H](CCCNC(=N)N)C(=O)N[C@@H](CO[C@@H]1O[C@H](CO)[C@@H](O)[C@H](O)[C@H]1NC(C)=O)C(=O)N[C@@H](CCCNC(=N)N)C(N)=O [Peptide 11, C14-RS(GlcNAc)R-NH2] (Myristoyl-Arg-Ser(βGlcNAc)-Arg-NH2)",>512 µg/mL,64 µg/mL,>512 µg/mL,364.17 ± 105.10 µg/mL,25.2 ± 3.47 µg/mL
"CCCCCCCCCCCCCC(=O)N[C@@H](CCCNC(=N)N)C(=O)N[C@@H](CCCNC(=N)N)C(=O)N[C@@H](CO[C@@H]1O[C@H](CO)[C@@H](O)[C@H](O)[C@H]1NC(C)=O)C(N)=O [Peptide 12, C14-RRS(GlcNAc)-NH2] (Myristoyl-Arg-Arg-Ser(βGlcNAc)-NH2)",>512 µg/mL,64 µg/mL,>512 µg/mL,345.72 ± 51.94 µg/mL,20.5 ± 3.05 µg/mL
"CCCCCCCCCCCCCCCC(=O)N[C@@H](CO[C@@H]1O[C@H](CO)[C@@H](O)[C@H](O)[C@H]1NC(C)=O)C(=O)N[C@@H](CCCNC(=N)N)C(=O)N[C@@H](CCCNC(=N)N)C(N)=O [Peptide 13, C16-S(GlcNAc)RR-NH2] (Palmitoyl-Ser(βGlcNAc)-Arg-Arg-NH2)",256 µg/mL,32 µg/mL,512 µg/mL,95.39 ± 2.40 µg/mL,10.6 ± 2.04 µg/mL
"CCCCCCCCCCCCCCCC(=O)N[C@@H](CCCNC(=N)N)C(=O)N[C@@H](CO[C@@H]1O[C@H](CO)[C@@H](O)[C@H](O)[C@H]1NC(C)=O)C(=O)N[C@@H](CCCNC(=N)N)C(N)=O [Peptide 14, C16-RS(GlcNAc)R-NH2] (Palmitoyl-Arg-Ser(βGlcNAc)-Arg-NH2)",128 µg/mL,32 µg/mL,64 µg/mL,73.34 ± 1.63 µg/mL,14.1 ± 3.48 µg/mL
